# Results reported in patent US8791143B2, “Anthranilic diamide derivatives having cyclic side-chains” (priority 2010, dated 2014).
# Read-outs that look alike come from different tables or passages of the source.
# Assays:
# [1] = log P by HPLC on reversed-phase columns (EEC Directive 79/831 Annex V.A8); assay type: physicochemical
# [2] = test system: caterpillars of the armyworm (Spodoptera frugiperda); assay: Spodoptera frugiperda test (SPODFR spray treatment); assay type: in vivo; conditions: for pest or weed control at 100 g/ha: Spodoptera frugiperda, 168 h, read-out: activity in % (caterpillars killed)
# [3] = test system: larvae of the mustard beetle (Phaedon cochleariae); assay: Phaedon test (PHAECO spray treatment); conditions: for pest or weed control at 100 g/ha: Phaedon cochleariae, 168 h, read-out: activity in % (beetle larvae killed)
# [4] = reversed-phase C18 HPLC column, pH 2.7, HPLC reversed-phase C18, acidic range pH 2.7 (HCOOH), only or first value of the cell, read-out: log P
# [5] = application rate 100 g/ha, after 7 days
Structure (SMILES),"chromatographic logP [1, 4]","log P ([1]; HPLC reversed-phase C18, acidic range pH 2.7 (HCOOH), only or first value of the cell)","pest or weed control at 100 g/ha [2, 5]",pest or weed control at 100 g/ha [3],"chromatographic logP ([1]; pH 2.7, log P)",pest or weed control at 100 g/ha [2],"activity in % (caterpillars killed) [2, 5]","activity in % (beetle larvae killed) [3, 5]"
Cc1cc(C#N)cc(C(=O)NCc2cccc(OC(F)F)c2)c1NC(=O)c1cc(Cn2nnc(C(F)F)n2)nn1-c1ncccc1Cl [Example 178],3.08,,83%,100%,,,,
Cc1cc(C#N)cc(C(=O)NCc2cccc(OC(F)F)c2)c1NC(=O)c1cc(Cn2nnc(C(F)(F)F)n2)nn1-c1ncccc1Cl [Example 180],3.54,,100%,100%,,,,
Cc1cc(C#N)cc(C(=O)NCc2ccc3c(c2)OCO3)c1NC(=O)c1cc(Cn2nnc(C(F)(F)F)n2)nn1-c1ccccc1Cl [Example 182],3.64,,83%,100%,,,,
Cc1c(F)ccc(C(=O)NCc2cccc(Cl)c2)c1NC(=O)c1cc(Cn2nnc(C(F)(F)F)n2)nn1-c1ncccc1Cl [Example 183],,,,100%,3.82,100%,,
Cc1c(F)ccc(C(=O)NCc2ccc(Cl)cc2)c1NC(=O)c1cc(Cn2nnc(C(F)(F)F)n2)nn1-c1ncccc1Cl [Example 184],,,,100%,3.8,100%,,
Cc1c(F)ccc(C(=O)NCc2ccc(OC(F)(F)F)cc2)c1NC(=O)c1cc(Cn2nnc(C(F)(F)F)n2)nn1-c1ncccc1Cl [Example 187],4.05,,100%,100%,,,,
Cc1cc(C#N)cc(C(=O)NCc2ccccc2OC(F)(F)F)c1NC(=O)c1cc(Cn2nnc(C(F)(F)F)n2)nn1-c1c(Cl)cccc1Cl [Example 188],4.13,,100%,100%,,,,
Cc1cc(C#N)cc(C(=O)NCc2ccccc2OC(F)F)c1NC(=O)c1cc(Cn2nnc(C(F)(F)F)n2)nn1-c1c(Cl)cccc1Cl [Example 189],3.75,,100%,100%,,,,
Cc1cc(C#N)cc(C(=O)NCc2ccc(OC(F)F)cc2)c1NC(=O)c1cc(Cn2nnc(C(F)(F)F)n2)nn1-c1ccccc1Cl [Example 191],3.81,,100%,100%,,,,
O=C(NCc1ccc(OC(F)(F)F)cc1)c1cc(Br)cc(Cl)c1NC(=O)c1cc(Cn2nnc(C(F)(F)F)n2)nn1-c1ncccc1Cl [Example 195],4.31,,100%,100%,,,,
Cc1ccc(Cl)c(C(=O)NCc2ccccc2Cl)c1NC(=O)c1cc(Cn2nnc(C(F)(F)F)n2)nn1-c1ncccc1Cl [Example 196],,,,100%,3.64,100%,,
Cc1ccc(Cl)c(C(=O)NCc2cccc(Cl)c2)c1NC(=O)c1cc(Cn2nnc(C(F)(F)F)n2)nn1-c1ncccc1Cl [Example 197],,,,100%,3.74,100%,,
Cc1c(F)ccc(C(=O)NCc2ccccc2Cl)c1NC(=O)c1cc(Cn2nnc(C(F)(F)F)n2)nn1-c1ncccc1Cl [Example 202],,,,100%,3.79,100%,,
O=C(NCc1ccccc1Cl)c1cc(Br)cc(Cl)c1NC(=O)c1cc(Cn2nnc(C(F)(F)F)n2)nn1-c1ncccc1Cl [Example 203],,,,100%,4.07,100%,,
O=C(NCc1cccc(Cl)c1)c1cc(Br)cc(Cl)c1NC(=O)c1cc(Cn2nnc(C(F)(F)F)n2)nn1-c1ncccc1Cl [Example 204],,,,100%,4.09,100%,,
O=C(NCc1ccc(Cl)cc1)c1cc(Br)cc(Cl)c1NC(=O)c1cc(Cn2nnc(C(F)(F)F)n2)nn1-c1ncccc1Cl [Example 205],,,,100%,4.08,100%,,
O=C(NCc1cccc(Cl)c1)c1cc(Cl)cc(F)c1NC(=O)c1cc(Cn2nnc(C(F)(F)F)n2)nn1-c1ncccc1Cl [Example 207],3.89,,100%,100%,,,,
O=C(NCc1ccc(Cl)cc1)c1cc(Cl)cc(F)c1NC(=O)c1cc(Cn2nnc(C(F)(F)F)n2)nn1-c1ncccc1Cl [Example 208],,3.95,,,,,100%,100%
Cc1cc(C#N)cc(C(=O)NCc2cccc(OC(F)F)c2)c1NC(=O)c1cc(Cn2nnc(C(F)(F)F)n2)nn1-c1ccccc1Cl [Example 212],3.67,,100%,100%,,,,
Cc1cc(C#N)cc(C(=O)NCc2cccc(OC(F)(F)F)c2)c1NC(=O)c1cc(Cn2nnc(C(F)(F)F)n2)nn1-c1c(Cl)cccc1Cl [Example 214],4.23,,100%,100%,,,,
Cc1cc(C#N)cc(C(=O)NCc2cccc(OC(F)F)c2)c1NC(=O)c1cc(Cn2nnc(C(F)(F)F)n2)nn1-c1c(Cl)cccc1Cl [Example 215],3.78,,100%,100%,,,,
Cc1cccc(CNC(=O)c2cc(Cl)cc(C)c2NC(=O)c2cc(Cn3nnc(C(F)(F)F)n3)nn2-c2ncccc2Cl)n1 [Example 225],,,,100%,2.24,100%,,
CCc1cccc(CNC(=O)c2cc(Cl)cc(C)c2NC(=O)c2cc(Cn3nnc(C(F)(F)F)n3)nn2-c2ncccc2Cl)n1 [Example 228],,,,100%,2.22,100%,,
Cc1cc(Cl)cc(C(=O)NCc2ncc(C(F)(F)F)cc2Cl)c1NC(=O)c1cc(Cn2nnc(C(F)(F)F)n2)nn1-c1ncccc1Cl [Example 230],4.23,,100%,100%,,,,
Cc1cc(Cl)cc(C(=O)NCc2cc(Cl)ccn2)c1NC(=O)c1cc(Cn2nnc(C(F)(F)F)n2)nn1-c1ncccc1Cl [Example 232],,,,100%,3.45,100%,,
Cc1cc(Cl)cc(C(=O)NCc2cccc(-c3ccccc3)n2)c1NC(=O)c1cc(Cn2nnc(C(F)(F)F)n2)nn1-c1ncccc1Cl [Example 233],4.27,,100%,100%,,,,

# The next lines start with results.
"chromatographic logP [1, 4]","log P ([1]; HPLC reversed-phase C18, acidic range pH 2.7 (HCOOH), only or first value of the cell)",Structure (SMILES),"pest or weed control at 100 g/ha [2, 5]",pest or weed control at 100 g/ha [3],"chromatographic logP ([1]; pH 2.7, log P)",pest or weed control at 100 g/ha [2],"activity in % (caterpillars killed) [2, 5]","activity in % (beetle larvae killed) [3, 5]"
3.47,,Cc1cc(Cl)cc(C(=O)NCc2ccccc2OC(F)F)c1NC(=O)c1cc(Cn2nnc(C(F)F)n2)nn1-c1ncccc1Cl [Example 175],100%,100%,,,,
4.04,,Cc1c(F)ccc(C(=O)NCc2ccccc2OC(F)(F)F)c1NC(=O)c1cc(Cn2nnc(C(F)(F)F)n2)nn1-c1ncccc1Cl [Example 185],100%,100%,,,,
4.07,,Cc1c(F)ccc(C(=O)NCc2cccc(OC(F)(F)F)c2)c1NC(=O)c1cc(Cn2nnc(C(F)(F)F)n2)nn1-c1ncccc1Cl [Example 186],100%,100%,,,,
3.88,,Cc1cc(C#N)cc(C(=O)NCc2ccccc2OC(F)F)c1NC(=O)c1cc(Cn2nnc(C(F)(F)F)n2)nn1-c1ccccc1Cl [Example 190],100%,100%,,,,
3.98,,Cc1cc(C#N)cc(C(=O)NCc2ccc(OC(F)(F)F)cc2)c1NC(=O)c1cc(Cn2nnc(C(F)(F)F)n2)nn1-c1ccccc1Cl [Example 192],100%,100%,,,,
4.32,,O=C(NCc1cccc(OC(F)(F)F)c1)c1cc(Br)cc(Cl)c1NC(=O)c1cc(Cn2nnc(C(F)(F)F)n2)nn1-c1ncccc1Cl [Example 194],100%,100%,,,,
4.12,,O=C(NCc1ccccc1OC(F)(F)F)c1cc(Cl)cc(F)c1NC(=O)c1cc(Cn2nnc(C(F)(F)F)n2)nn1-c1ncccc1Cl [Example 209],100%,100%,,,,
4.22,,O=C(NCc1cccc(OC(F)(F)F)c1)c1cc(Cl)cc(F)c1NC(=O)c1cc(Cn2nnc(C(F)(F)F)n2)nn1-c1ncccc1Cl [Example 210],100%,100%,,,,
4.21,,O=C(NCc1ccc(OC(F)(F)F)cc1)c1cc(Cl)cc(F)c1NC(=O)c1cc(Cn2nnc(C(F)(F)F)n2)nn1-c1ncccc1Cl [Example 211],100%,100%,,,,
4.18,,Cc1cc(C#N)cc(C(=O)NCc2cccc(OC(F)(F)F)c2)c1NC(=O)c1cc(Cn2nnc(C(F)(F)F)n2)nn1-c1ccccc1Cl [Example 213],100%,100%,,,,
4.1,,Cc1cc(C#N)cc(C(=O)NCc2ccc(OC(F)F)cc2)c1NC(=O)c1cc(Cn2nnc(C(F)(F)F)n2)nn1-c1c(Cl)cccc1Cl [Example 216],100%,100%,,,,
4.28,,Cc1cc(C#N)cc(C(=O)NCc2ccccc2OC(F)(F)F)c1NC(=O)c1cc(Cn2nnc(C(F)(F)F)n2)nn1-c1ccccc1Cl [Example 217],100%,100%,,,,
3.7,,Cc1cc(Cl)cc(C(=O)NCc2ccc(C(F)(F)F)cn2)c1NC(=O)c1cc(Cn2nnc(C(F)(F)F)n2)nn1-c1ncccc1Cl [Example 226],100%,100%,,,,
